Article PMC5318275 (Chemical research in toxicology, 2017)
Where two headings read alike, the source gives them in different places.

How the values were obtained:
hMT1 = settings: read-out: Ki hMT1; competition for 2-[125I]-iodomelatonin (300 pM); cited from earlier work
hMT2 = settings: read-out: Ki hMT2; competition for 2-[125I]-iodomelatonin (300 pM); cited from earlier work
hMT1 melatonin receptor [1] = target: T1, hMT1 melatonin receptor (Homo sapiens, UniProt P48039); assay: biochemical; type: binding
hMT2 melatonin receptor [2] = target: T2, hMT2 melatonin receptor (Homo sapiens, UniProt P49286); assay: biochemical; type: binding; settings: for fold higher affinity for hMT2 than for hMT1: competition with 2-[125I]-iodomelatonin binding; for ratio MT1/MT2 (KiMT1/KiMT2): fold difference in affinity between hMT1 and hMT2
T2 sequence (P49286 1-362): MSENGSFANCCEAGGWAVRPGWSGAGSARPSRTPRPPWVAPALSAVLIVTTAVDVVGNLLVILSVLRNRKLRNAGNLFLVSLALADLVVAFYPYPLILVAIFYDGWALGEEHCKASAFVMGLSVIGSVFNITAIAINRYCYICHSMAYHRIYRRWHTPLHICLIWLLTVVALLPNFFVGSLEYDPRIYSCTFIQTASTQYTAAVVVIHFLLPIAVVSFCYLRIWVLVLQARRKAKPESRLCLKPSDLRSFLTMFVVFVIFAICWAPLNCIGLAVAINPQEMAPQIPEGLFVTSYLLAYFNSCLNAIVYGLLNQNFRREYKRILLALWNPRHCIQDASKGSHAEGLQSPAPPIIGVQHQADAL

hMT1 melatonin receptor [3] = target: T1, hMT1 melatonin receptor; assay: biochemical; type: binding; settings: for ratio KiGTP/KiControl, human MT1: 100 μM GTP vs control; for ratio KiGTP/KiControl, human MT1 / Ki: mean ± SEM; for apparent intrinsic efficacy at hMT1 from GTP shift: classified by KiGTP/KiControl: agonists >1, antagonists =1, inverse agonists <1; for Ki: human MT1 Ki value, 25 °C, 1 h
hMT2 melatonin receptor [4] = target: T2, hMT2 melatonin receptor; assay: biochemical; type: binding; settings: for ratio KiGTP/KiControl, human MT2: 100 μM GTP vs control; for ratio KiGTP/KiControl, human MT2 / Ki: mean ± SEM; for apparent intrinsic efficacy at hMT2 from GTP shift: classified by KiGTP/KiControl: agonists >1, antagonists =1, inverse agonists <1; for Ki: human MT2 Ki value, 25 °C, 1 h
serotonin levels = settings: single oral dose 60 mg/kg; cited from earlier work

T1 sequence (P48039 whole entry): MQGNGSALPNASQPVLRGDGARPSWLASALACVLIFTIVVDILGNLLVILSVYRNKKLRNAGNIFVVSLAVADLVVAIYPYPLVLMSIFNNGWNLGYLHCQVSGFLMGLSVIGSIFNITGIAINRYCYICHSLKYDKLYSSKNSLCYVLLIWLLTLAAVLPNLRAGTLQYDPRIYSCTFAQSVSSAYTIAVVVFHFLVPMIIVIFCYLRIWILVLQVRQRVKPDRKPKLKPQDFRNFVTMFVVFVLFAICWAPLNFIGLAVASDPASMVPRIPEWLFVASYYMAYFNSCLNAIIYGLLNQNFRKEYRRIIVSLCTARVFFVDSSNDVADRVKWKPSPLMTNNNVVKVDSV

Row | SMILES | Ki (hMT1) [nM] | Ki (hMT2) [nM] | Ki (hMT1 melatonin receptor [1]) [nM] | Ki (hMT2 melatonin receptor [2]) [nM] | fold higher affinity for hMT2 than for hMT1 (hMT2 melatonin receptor [2]) [fold] | ratio MT1/MT2 (KiMT1/KiMT2) (hMT2 melatonin receptor [2]) | ratio KiGTP/KiControl, human MT1 (hMT1 melatonin receptor [3]) | apparent intrinsic efficacy at hMT1 from GTP shift (hMT1 melatonin receptor [3]) | Ki (hMT1 melatonin receptor [3]; GTP, presence of 100 μM GTP) [nM] | Ki (hMT1 melatonin receptor [3]; control, absence of GTP) [nM] | ratio KiGTP/KiControl, human MT2 (hMT2 melatonin receptor [4]) | apparent intrinsic efficacy at hMT2 from GTP shift (hMT2 melatonin receptor [4]) | Ki (hMT2 melatonin receptor [4]; GTP, presence of 100 μM GTP) [nM] | Ki (hMT2 melatonin receptor [4]; control, absence of GTP) [nM] | Ki (hMT1 melatonin receptor [1]; affinity at hMT1, text of discussion, equals the Table 2 control value) [nM] | levels of serotonin (serotonin levels)
1 | CCC(=O)NC1Cc2ccccc2C(c2ccccc2)C1 (centres unmarked) [4P-PDOT] | 658 | 0.41 |  |  |  |  |  |  |  |  |  |  |  |  |  | 
2 | CNC(=O)Oc1cccc2c1OC(C)(C)C2 [carbofuran, 2,3-dihydro-2,2-dimethyl-7-benzofuranyl methylcarbamate] |  |  | 58500 ± 8250 | 1680 ± 240 | 35 | 34.8 | 0.59 ± 0.24 | antagonist/inverse agonist | 29900 ± 8600 | 63500 ± 12500 | 10.8 ± 4.2 | agonist efficacy | 12100 ± 2630 | 1670 ± 390 |  | 
3 | CNC(=O)Oc1cccc2ccccc12 [carbaryl, 1-naphthyl methylcarbamate] |  |  |  | 70 ± 10 | 33 | 32.4 | 0.65 ± 0.16 | antagonist/inverse agonist | 1210 ± 110 | 2330 ± 530 | 4.82 ± 0.82 | agonist | 310 ± 30 | 70 ± 5 | 2330 | increased
4 | CC(=O)NCCc1c(Cc2ccccc2)[nH]c2ccccc12 [luzindole] | 179 | 7.3 |  |  |  |  |  |  |  |  |  |  |  |  |  | 
